Test results from US10377743B2, “Inhibitors of RAS and methods of use thereof” (Araxes Pharma LLC, priority 2016, dated 2019).

Biological target: T1, KRAS G12C 1-169, his-tagged protein, GDP-loaded (Homo sapiens, UniProt P01116, G12C)
T1 construct: KRAS G12C 1-169, his-tagged protein, GDP-loaded
Assay: Biochemical assay: covalent binding (modification %) to KRAS G12C by mass spectrometry
Details: 2 hour incubation period, 8 μM compound (compounds 21-92)
Protocol: Test compounds were prepared as 10 mM stock solutions in DMSO (Fisher cat# BP-231-100). KRAS G12C 1-169, his-tagged protein, GDP-loaded was diluted to 2 μM or 0.5 μM in buffer (20 mM Hepes, 150 mM NaCl, 1 mM MgCl2). Compounds were tested for activity as follows:
Compounds were diluted to 50× final test concentration in DMSO in 96-well storage plates. Compound stock solutions were vortexed before use and observed carefully for any sign of precipitation. Dilutions were as follow: • For 100 μM final compound concentration, compounds were diluted to 5000 μM (5 μL 10 mM compound stock+5 μL DMSO and mixed well by pipetting. • For 30 μM final compound concentration, compounds were diluted to 1500 μM (3 μL 10 mM compound stock+17 μL DMSO) and mixed well by pipetting. • For 10 μM final compound concentration, compounds were diluted to 500 μM (2 μL 10 mM compound stock+38 μL DMSO) and mixed well by pipetting. 49 μL of the stock protein solution was added to each well of a 96-well PCR plate (Fisher cat#1423027). 1 μl of the diluted 50× compounds were added to appropriate wells in the PCR plate using 12-channel pipettor. Reactions were mixed carefully and thoroughly by pipetting up/down with a 200 μL multi-channel pipettor. The plate was sealed well with aluminum plate seal, and stored in drawer at room temperature for 10 minutes, 30 minutes, 2 hours or 24 hours. 5 μL of 2% formic acid (Fisher cat# A117) in de-ionized H2O was then added to each well followed by mixing with a pipette. The plate was then resealed with aluminum seal and stored on dry ice until analyzed as described below.
The above described assays were analyzed by mass spectrometry according to one of the following two procedures:
The MS instrument is set to positive polarity, 2 GHz resolution, and low mass (1700) mode and allowed to equilibrate for 30 minutes. The instrument is then calibrated, switched to acquisition mode and the appropriate method loaded.
After another 30 minute equilibration time, a blank batch (i.e., buffer) is run to ensure equipment is operating properly. The samples are thawed at 37° C. for 10 minutes, briefly centrifuged, and transfer to the bench top. Wells A1 and H12 are spiked with 1 μL 500 μM internal standard peptide, and the plates centrifuged at 2000×g for 5 minutes. The method is then run and masses of each individual well recorded.
The masses (for which integration data is desired) for each well are pasted into the platemap and exported from the analysis. Masses for the internal standards are exported as well. The data at 50 ppm is extracted for the +19 charge state, and identity of well A1 is assigned using the internal standard spike and integrated. Peak data is exported as a TOF list and the above steps are repeated individually, for the +20, 21, 22, 23, 24, and 25 charge states.
The masses and peak intensities of KRAS G12C protein species were measured using a Dionex RSLCnano system (Thermo Scientific) connected to a Q Exactive Plus mass spectrometer (Thermo Scientific).
[…] of sample was each loaded onto a Aeris™ 3.6 μm WIDEPORE C4 200 Å, LC Column 50×2.1 mm column maintained at 40° C. at a flow rate of 600 μL/min with 20% Solvent A (0.1% formic acid in H2O) and 80% Solvent B (0.1% formic acid in acetonitrile). The liquid chromatography conditions were 20% solvent B for 1 minute, 20% to 60% solvent B for 1.5 minutes, 60% to 90% solvent for 0.5 minute, 90% solvent B for 0.2 minute, 90% to 20% solvent B for 0.2 minute, and then equilibrated for 1.6 minute before the following sample injection. The flow rate was maintained at 600 μL/min throughout the sample analysis.
The mass spectrometer was operated in profile mode at a resolution of 17500, 5 microscans, using 50 msec max injection time and an AGC target of 1×10^6, and a full mass range from 800-1850 m/z was recorded. The HCD trapping gas was optimized for maximum sensitivity for intact proteins. […]

SMILES	Binding %
C=CC(=O)N1CC(N2Cc3cc(F)c(-c4cc(O)ccc4Cl)cc3C2=O)C1 [Compound 21, 2-(1-acryloylazetidin-3-yl)-6-(2-chloro-5-hydroxyphenyl)-5-fluoroisoindolin-1-one]	++ (++ indicates binding activity from 10 to 50%)
C=CC(=O)NCCN1Cc2ccc(-c3c(C)ccc4[nH]ncc34)cc2C1=O [Compound 22, N-(2-(6-(5-methyl-1H-indazol-4-yl)-1-oxoisoindolin-2-yl)ethyl)acrylamide]	+ (+ indicates binding activity up to 10%)
C=CC(=O)N1CC(N2Cc3c(C(N)=O)cc(-c4cc(O)cc5ccccc45)cc3C2=O)C1 [Compound 23, 2-(1-acryloylazetidin-3-yl)-6-(3-hydroxynaphthalen-1-yl)-1-oxoisoindoline-4-carboxamide]	+++ (+++ indicates binding activity greater than 50%)
C=CC(=O)N1CC(N2Cc3c(C#N)cc(-c4cc(O)cc5ccccc45)cc3C2=O)C1 [Compound 24, 2-(1-acryloylazetidin-3-yl)-6-(3-hydroxynaphthalen-1-yl)-1-oxoisoindoline-4-carbonitrile]	+++ (+++ indicates binding activity greater than 50%)
C=CC(=O)N1CC(N2C(=O)c3ccc(-c4cc(O)cc5ccccc45)cc3C2=O)C1 [Compound 25, 2-(1-acryloylazetidin-3-yl)-5-(3-hydroxynaphthalen-1-yl)isoindoline-1,3-dione]	++ (++ indicates binding activity from 10 to 50%)
C=CC(=O)N1CC(N2Cc3c(F)cc(-c4cc(O)ccc4Cl)cc3C2=O)C1 [Compound 26, 2-(1-acryloylazetidin-3-yl)-6-(2-chloro-5-hydroxyphenyl)-4-fluoroisoindolin-1-one]	++ (++ indicates binding activity from 10 to 50%)

Same assay, conditions: 2 hour incubation period, 10 μM compound (compounds 1-20)

SMILES	Binding %
C=CC(=O)N1CC(N2Cc3cc(-c4cc(O)cc5ccccc45)ccc3C2=O)C1 [Compound 1, 2-(1-acryloylazetidin-3-yl)-5-(3-hydroxynaphthalen-1-yl)isoindolin-1-one]	++ (++ indicates binding activity from 10 to 50%)
C=CC(=O)N1CC(N2Cc3ccc(-c4cc(O)cc5ccccc45)cc3C2=O)C1 [Compound 2, 2-(1-acryloylazetidin-3-yl)-6-(3-hydroxynaphthalen-1-yl)isoindolin-1-one]	+++ (+++ indicates binding activity greater than 50%)
C=CC(=O)N1CC(N2Cc3ccc(-c4cc(O)cc5ccccc45)cc3CC2=O)C1 [Compound 3, 2-(1-acryloylazetidin-3-yl)-6-(3-hydroxynaphthalen-1-yl)-1,4-dihydroisoquinolin-3(2H)-one]	+++ (+++ indicates binding activity greater than 50%)
C=CC(=O)N1CCCC(N2Cc3ccc(-c4cc(O)cc5ccccc45)cc3C2=O)C1 (centres unmarked) [Compound 4, 2-(1-acryloylpiperidin-3-yl)-6-(3-hydroxynaphthalen-1-yl)isoindolin-1-one]	+ (+ indicates binding activity up to 10%)
C=CC(=O)N1CC(N2Cc3ccc(-c4c(C)ccc5[nH]ncc45)cc3C2=O)C1 [Compound 5, 2-(1-acryloylazetidin-3-yl)-6-(5-methyl-1H-indazol-4-yl)isoindolin-1-one]	++ (++ indicates binding activity from 10 to 50%)
C=CC(=O)N1CC(N2Cc3ccc(-c4c(O)cccc4F)cc3C2=O)C1 [Compound 6, 2-(1-acryloylazetidin-3-yl)-6-(2-fluoro-6-hydroxyphenyl)isoindolin-1-one]	+ (+ indicates binding activity up to 10%)
C=CC(=O)N1CCC(N2Cc3ccc(-c4cc(O)cc5ccccc45)cc3C2=O)CC1 [Compound 7, 2-(1-acryloylpiperidin-4-yl)-6-(3-hydroxynaphthalen-1-yl)isoindolin-1-one]	+ (+ indicates binding activity up to 10%)
C=CC(=O)N1CC(N2Cc3ccc(-c4c(C)ccc5cn[nH]c45)cc3C2=O)C1 [Compound 8, 2-(1-acryloylazetidin-3-yl)-6-(6-methyl-1H-indazol-7-yl)isoindolin-1-one]	+ (+ indicates binding activity up to 10%)
C=CC(=O)N1CCC(N2Cc3ccc(-c4cc(O)cc5ccccc45)cc3C2=O)C1 (centres unmarked) [Compound 9, 2-(1-acryloylpyrrolidin-3-yl)-6-(3-hydroxynaphthalen-1-yl)isoindolin-1-one]	++ (++ indicates binding activity from 10 to 50%)
C=CC(=O)N1CC(N2Cc3ccc(-c4cc(O)ccc4Cl)cc3C2=O)C1 [Compound 10, 2-(1-acryloylazetidin-3-yl)-6-(2-chloro-5-hydroxyphenyl)isoindolin-1-one]	+++ (+++ indicates binding activity greater than 50%)
C=CC(=O)N1CC(N2Cc3ccc(-c4cc(O)ccc4C)cc3C2=O)C1 [Compound 11, 2-(1-acryloylazetidin-3-yl)-6-(5-hydroxy-2-methylphenyl)isoindolin-1-one]	++ (++ indicates binding activity from 10 to 50%)
C=CC(=O)N1CC(N2Cc3c(Cl)cc(-c4cc(O)cc5ccccc45)cc3C2=O)C1 [Compound 12, 2-(1-acryloylazetidin-3-yl)-4-chloro-6-(3-hydroxynaphthalen-1-yl)isoindolin-1-one]	+++ (+++ indicates binding activity greater than 50%)
C=CC(=O)N1CC(N2Cc3c(Cl)cc(-c4cc(O)ccc4Cl)cc3C2=O)C1 [Compound 13, 2-(1-acryloylazetidin-3-yl)-4-chloro-6-(2-chloro-5-hydroxyphenyl)isoindolin-1-one]	++ (++ indicates binding activity from 10 to 50%)
C=CC(=O)N1CC(N2Cc3c(C)cc(-c4cc(O)cc5ccccc45)cc3C2=O)C1 [Compound 14, 2-(1-acryloylazetidin-3-yl)-6-(3-hydroxynaphthalen-1-yl)-4-methylisoindolin-1-one]	+++ (+++ indicates binding activity greater than 50%)
C=CC(=O)N1CC(N2Cc3c(C)cc(-c4cc(O)ccc4Cl)cc3C2=O)C1 [Compound 15, 2-(1-acryloylazetidin-3-yl)-6-(2-chloro-5-hydroxyphenyl)-4-methylisoindolin-1-one]	++ (++ indicates binding activity from 10 to 50%)
C=CC(=O)N1CC(N2Cc3ccc(-c4c[nH]c5ccccc45)cc3C2=O)C1 [Compound 16, 2-(1-acryloylazetidin-3-yl)-6-(1H-indol-3-yl)isoindolin-1-one]	++ (++ indicates binding activity from 10 to 50%)
C=CC(=O)N1CC(N2Cc3c(cc(-c4cc(O)ccc4Cl)cc3C(F)(F)F)C2=O)C1 [Compound 17, 2-(1-acryloylazetidin-3-yl)-6-(2-chloro-5-hydroxyphenyl)-4-(trifluoromethyl)isoindolin-1-one]	++ (++ indicates binding activity from 10 to 50%)
C=CC(=O)NCCN1Cc2ccc(-c3cc(O)cc4ccccc34)cc2C1=O [Compound 18, N-(2-(6-(3-hydroxynaphthalen-1-yl)-1-oxoisoindolin-2-yl)ethyl)acrylamide]	+ (+ indicates binding activity up to 10%)
C=CC(=O)N1CC(N2Cc3cc(F)c(-c4cc(O)cc5ccccc45)cc3C2=O)C1 [Compound 19, 2-(1-acryloylazetidin-3-yl)-5-fluoro-6-(3-hydroxynaphthalen-1-yl)isoindolin-1-one]	+++ (+++ indicates binding activity greater than 50%)
C=CC(=O)N1CC(N2Cc3ccc(Nc4ccccc4)cc3C2=O)C1 [Compound 20, 2-(1-acryloylazetidin-3-yl)-6-(phenylamino)isoindolin-1-one]	+ (+ indicates binding activity up to 10%)
